In US8895032B2, “Dendritic nano-antioxidants” (Central Michigan University, priority 2009, dated 2014):
Several values for one entry are separate records, joined by “and”; a condition that tells them apart may be missing. Identical values can stand only once.

Experiments:
DPPH radical assay = assay: DPPH radical assay
Experimental: The DPPH assay was one of three electron transfer (ET) assays used to determine the antioxidant potential of compound 1 (described in Example 6) in comparison to its monomeric counterpart (syringaldehyde) as well as popular antioxidants. In an ET assay, an antioxidant donates electron(s) to a molecular probe, thus reducing it. From the assay, thermodynamic conversion of antioxidant to antioxidant radical (oxidation) is measured during a fixed time period.
The reduction of DPPH radical was determined for ascorbic acid, Trolox, syringaldehyde, and the compound 1 described in Example 6 as previously reported (Brand-Williams, et al. Lebensm.-Wiss U.-Technol. 1995, 28, 25-30, incorporated herein by reference in its entirety). In the DPPH assay, DPPH• radical was reduced by the antioxidant in methanol (Brand-Williams, et al. Lebensm.-Wiss U.-Technol. 1995, 28, 25-30, incorporated herein by reference in its entirety). […] The DPPH reagent was made in methanol. Antioxidant sample (10 μL) was added to 1.0 mL of reagent and the absorbance was monitored at 515 nm until a plateau was reached. Antioxidant concentrations were 50 μM syringaldehyde, 12.5 μM Trolox and ascorbic acid, and 5 μM compound 1. All samples were made in methanol and run in triplicates at room temperature.
The DPPH• scavenging capacity of each antioxidant was evaluated from the plot of the percentage DPPH• remaining when the kinetics reached a steady state as a function of the molar ratios of antioxidant to DPPH•. […] Using the curve, EC50 (the amount of antioxidant necessary to decrease the initial DPPH• concentration by 50%), antiradical power (1/EC50, ability to reduce the DPPH•), reaction stoichiometry (EC50×2, the concentration of antioxidant required to reduce 100% of DPPH• radical), and the number of reduced DPPH• per antioxidant molecule (1/stoichiometry) for each antioxidant were calculated as previously described (Brand-Williams, et al. Lebensm.-Wiss U.-Technol. 1995, 28, 25-30, incorporated herein by reference in its entirety) and are depicted in Table 1.
Antioxidant capacity of the compounds was assessed by the DPPH assay (Brand-Williams, et al. Lebensm. Wiss. Technol. 1995, 28, 25, incorporated herein by reference in its entirety). […] In FIG. 22, control with methanol is (X, dashed); compound 1 is (□), compound 2 is (•), compound 3 is (◯), and Trolox (Δ). All antioxidant concentrations were 5 μM.
The free-radical scavenging ability of the antioxidants was evaluated by the DPPH assay, as described above in Example 7.

[1] = beta-carotene-linoleate assay; type: biochemical; settings: for % A470 nm: 12 μM, after 180 min incubation at 50° C.; for protection of linoleic acid from oxidation: 50° C., 180 min, 470 nm
Text: The ability of the dendritic antioxidants 1, 2, and 3 to protect linoleic acid against free radical damage was examined by the beta-carotene-linoleate model (Jayaprakasha, G. K., et al. Food Chem. 2001, 73, 285, incorporated herein by reference in its entirety). In the absence of an antioxidant, hydroperoxides formed from linoleic acid oxidation bleach the highly unsaturated beta-carotene by a free-radical-mediated phenomenon. The bleaching of the reddish-orange color of beta-carotene was monitored at 470 nm in the presence of various concentrations of antioxidant. The % absorbance (corrected for control without antioxidant) was determined at each antioxidant concentration after incubation at 50° C. for 180 min. The % A470 nm values were determined as follows: % A470 nm=[(At(180 min)/At(0 min))×100]−[(Ac(180 min)/Ac(0 min))×100], wherein At(180 min)=absorbance at 470 nm of antioxidant sample incubated at 50° C. for 180 min, At(0 min)=absorbance at 470 nm of antioxidant sample incubated at 50° C. for 0 min, Ac(180 min)=absorbance at 470 nm of control sample (without antioxidant) incubated at 50° C. for 180 min, and Ac(0 min)=absorbance at 470 nm of control sample (without antioxidant) incubated at 50° C. for 0 min. […] In FIG. 24, protection of linoleic acid from oxidation by various antioxidants is shown for compound 1 (□), compounds 2 and 3 (•), quercetin (x), and Trolox (Δ).

plasmid DNA pBR 322 = assay: Protection of plasmid DNA from AAPH damage (agarose electrophoresis); type: biochemical; settings: 10 mM AAPH, 37° C., 4 h
Experimental: The effectiveness of the three compounds to protect DNA from AAPH damage was also determined. The plasmid DNA pBR 322 was incubated with AAPH (final concentration 10 mM) at 37° C. for 4 h with or without antioxidants (final concentrations, 0.35-45 μM), after which the samples were subjected to agarose electrophoresis (Sakihama, Y., et al. Toxicology 2002, 177, 67, incorporated herein by reference in its entirety). […] In the absence of AAPH, pBR 322 was mostly in its supercoiled (S) form (small amount of open circular, O, form was also visible, lane 1 FIG. 25). After reaction with AAPH, the DNA was transformed almost entirely into its open circular form (lane 2, FIG. 25). […] No protection was obtained for both compound 1 and quercetin below 5 μM (lanes 7-10, FIG. 25). […] Compound 3 as well as Trolox were ineffective at all concentrations used in the experiment (0.35-45 μM).
Protection of DNA from free radical damage by the antioxidant dendrimers (compounds 4, 5, and 1) was also evaluated. Plasmid DNA (pBR 322) samples, were incubated with AAPH (final concentration 10 mM) at 37° C. for 4 h with antioxidants (final concentrations, 0.35-45 μM) and subjected to agarose electrophoresis. […] The native DNA was mostly in its supercoiled (S) form (small amount of open circular, O, form was also visible, lane 1, FIG. 31). In the presence of AAPH, the DNA was transformed almost entirely into its O form (lane 2, FIG. 31). […] Negligible DNA protection was afforded by all three dendrimers at ≦2.5 μM (lanes 7-10, FIG. 31). Under similar conditions, Trolox as well as the starting materials for dendrimer synthesis were ineffective at all concentrations.

Human LDL = assay: Protection of LDL from AAPH oxidation (agarose gel electrophoresis); type: biochemical; settings: 10 mM AAPH, 18 h, 37° C.
Text: The antioxidant activity of compounds 1, 2, and 3 towards biomolecules was examined by studying their ability to protect LDL, fatty acid, and DNA from free radicals. For LDL, AAPH was used to induce free radical damage. AAPH was used instead of copper (Cu^2) ion for LDL oxidation so that the free radical scavenging activity of the antioxidants could be measured without any pro-oxidant interference caused by metal ions (Salah, N. et al. Arch. Biochem. Biophys. 1995, 322, 339, incorporated herein by reference in its entirety). All solutions were made in ultra-pure water.
Protection of LDL from AAPH free radicals by the antioxidant decreased the anodic shift in a dose-dependent manner (FIG. 23). […] The increased hydrophobicity of compound 3 may be partly responsible for its improved LDL protection over compound 2.
The antioxidant activity of the antioxidants towards biomolecules was examined by studying their ability to protect LDL, lysozyme, and DNA from free radicals. For LDL, AAPH was used to induce free radical damage. AAPH was used instead of Cu^2+ for LDL oxidation so that the free radical scavenging activity of the antioxidants could be measured without any pro-oxidant interference caused by metal ions. The oxidation of human low-density lipoprotein was used as a model for evaluating the ability of the G1 dendrimers as chain-breaking antioxidants for lipid. Oxidation of LDL leads to changes in both the lipid and the protein moieties of the lipoprotein particle. Lipid peroxidation in LDL has been evaluated by a variety of methods. Due to the complexity of events that occur in lipoprotein oxidation, the electrophoretic migration pattern of oxidized LDL is one of the best methods to evaluate the extent of lipoprotein oxidation. LDL was incubated with 20 mM AAPH and increasing concentrations of the G1 dendrimers (0-37 μM in PBS) for 21 h at 37° C. The mixture was then subjected to agarose gel electrophoresis using the Ciba Corning Clinical Electrophoresis System. The agarose gel was stained with Fat Red 7B. In FIG. 30A (top), lane 1 is native LDL, and lanes 2-8 are AAPH-oxidized LDL with 0, 37, 18.5, 9, 4.5, 2 and 1 μM compound 4, respectively. In FIG. 30B (bottom), lane 1 is native LDL, and lanes 2-8 are AAPH-oxidized LDL with 0, 37, 18.5, 9, 4.5, 2 and 1 μM quercetin or Trolox, respectively.

[2] = FRAP assay (reduction of Fe(III) to Fe(II)); type: biochemical; set-up: Slope of ΔA593 versus concentration: unit not given here; settings: for Slope of ΔA593 versus concentration: 37° C.
Experimental: The FRAP assay was performed as previously described (Pulido, et al. J. Agric. Food Chem. 2000, 48, 3396-3402, incorporated herein by reference in its entirety). In the FRAP assay, ferric was reduced by the antioxidant to ferrous via electron transfer (Benzie et al., Anal. Biochem. 1996, 239, 70-76, incorporated herein by reference in its entirety). This assay measured the redox potential of an antioxidant which is used as an estimate of antioxidant efficiency and expressed as a FRAP value. […] The compound 1 as well as the other antioxidants was dissolved in methanol. […] Reaction kinetics of the compound 1 and other antioxidants were obtained by plotting the change in slopes at various times and are shown in FIG. 18. […] This time-dependent increase in absorbance was previously reported (Pulido, et al. J. Agric. Food Chem. 2000, 48, 3396-3402, incorporated herein by reference in its entirety) and was especially significant with polyphenolic compounds. […] However, the FRAP value increased with time, reaching 2.5 in 60 min. […] J. Agric. Food Chem. 2000, 48, 3396-3402, incorporated herein by reference in its entirety). […] EC1 values, and therefore ferric reducing ability, were lower at longer reaction times as expected from the kinetic behavior of the antioxidants (Pulido, et al. J. Agric. Food Chem. 2000, 48, 3396-3402, incorporated herein by reference in its entirety).

[3] = ABTS radical cation decolorization assay; type: biochemical
Text: We have tested AO activity of G1 (13) using ABTS as a radical source using a previously reported spectroscopic assay. The AO activity of the G1 (13) was compared to those of syringaldehyde, gallic acid, and vitamin C. If the phenolic OH group is the radical scavenging site, the expected AO activity of the G1 (13) should be 4 fold higher than that of syringaldehyde and 1.3 fold higher than that of gallic acid (which has three phenolic OH groups).
ABTS radical cation decolorization assay was used as previously described (Ozgen, et al. J. Agric. Food Chem. 2006, 54, 1151-1157, incorporated herein by reference in its entirety). Like the DPPH assay, this was also a decolorization assay and measured absorbance decrease at 734 nm as the ABTS radical (ABTS•+) is quenched by the antioxidant. The solvent used for the assay was ethanol. ABTS reagent was added to 1.0 mL solvent in a cuvet to bring the absorbance to 0.7. A 10 μL sample of antioxidant was then added, mixed, and the absorbance monitored at 734 nm for 6 min. Antioxidant concentrations were 14.4 μM Trolox, 11.4 μM ascorbic acid, 15.4 μM syringaldehyde, and 3 μM compound 1. The % decrease in absorbance at 6 min was plotted against antioxidant concentrations. The gradient of the line obtained by linear regression for a given antioxidant was divided by that obtained for Trolox to yield Trolox equivalent antioxidant (TEAC) values. All samples were made in ethanol and run in triplicates and at room temperature.

NCc1ccc(CN)cc1 [4-aminomethylbenzylamine]
quenching of DDPH• (DPPH radical assay; 40 μM final concentration in cuvet): 6% | % A470 nm [1]: 16%

COc1cc(CN(Cc2ccc(CN(Cc3ccc(O)c(OC)c3)Cc3ccc(O)c(OC)c3)cc2)Cc2ccc(O)c(OC)c2)ccc1O [Compound 2]
concentration at which some DNA protection was observed (plasmid DNA pBR 322): ≥ 45 µM | protection of linoleic acid from oxidation [1]: about twice weaker than compound 1

COc1cc(CN(Cc2ccc(CN(Cc3cc(I)c(O)c(OC)c3)Cc3cc(I)c(O)c(OC)c3)cc2)Cc2cc(I)c(O)c(OC)c2)cc(I)c1O [Compound 3]
DNA protection at all concentrations used (plasmid DNA pBR 322; 0.35-45 μM): ineffective | protection of LDL from AAPH free radicals (anodic migration) (Human LDL): better LDL protection than compound 2 | protection of linoleic acid from oxidation [1]: about twice weaker than compound 1

COc1cc(C=O)cc(OC)c1O [Syringaldehyde]
Antioxidant Capacity Relative to Trolox, FRAP 5 min ([2]; 5 min): 2.3 | EC1 (concentration with ferric-TPTZ reducing ability equivalent to 1 mM FeSO4.7H2O) ([2]; 5 min): 194 µM | FRAP value relative to Fe(II) ([2]; 5 min): 5.1 | FRAP value relative to Fe(II) ([2]; 15 min): 6.7 | FRAP value relative to Fe(II) ([2]; 30 min): 8.4 | Antioxidant Capacity Relative to Trolox, FRAP 60 min ([2]; 60 min): 4 and 4.2 | EC1 (concentration with ferric-TPTZ reducing ability equivalent to 1 mM FeSO4.7H2O) ([2]; 60 min): 108 µM | FRAP value relative to Fe(II) ([2]; 60 min): 9.2 | Slope of ΔA593 versus concentration ([2]; Reaction time 5 min): 0.062 | Slope of ΔA593 versus concentration ([2]; Reaction time 15 min): 0.081 | Slope of ΔA593 versus concentration ([2]; Reaction time 30 min): 0.101 | Slope of ΔA593 versus concentration ([2]; Reaction time 60 min): 0.111 | Antioxidant Capacity Relative to Trolox, ABTS [3]: 0.98 | IC50 ([3]; final concentration in the cuvet, read-out: concentration at which 50% inhibition of ABTS•+ was observed): ~11 µM | Slope of % decrease in absorbance at 6 min versus antioxidant concentration ([3]; linear regression, concentration in μM): 3.9 | TEAC ([3]; slope divided by that of Trolox, % decrease in A734 at 6 min, ethanol): 0.98 | # of DDPH• reduced per antioxidant molecule (1/stoichiometry) (DPPH radical assay): 0.33 | Antioxidant Capacity Relative to Trolox, DPPH (DPPH radical assay): 0.18 | DPPH assay, times weaker than Trolox (DPPH radical assay): 5.6 times | DPPH• remaining in one minute (DPPH radical assay; 50 μM syringaldehyde): 96% | time to reach plateau / steady state with DPPH• (DPPH radical assay; 50 μM syringaldehyde, 12.5 μM Trolox and ascorbic acid, 5 μM compound 1, methanol, room temperature, 515 nm): approximately 45 min | % A470 nm [1]: 12%
